The record followed here is a compilation of properties of binary mixtures (doi:10.1016/j.tca.2014.09.015).

The series is described as follows: xn = mol fraction of the nth substance listed. Particulars: 101 kPa.

As to `O` + CCOS(=O)(=O)[O-].CC[N+]1(C)CCOCC1, the viscosity – broadly, the resistance of a fluid to flow – reads like this: (303.15 K, x1 = 1) 0.81 mPa·s; (313.15 K, x1 = 1) 0.68 mPa·s.
`CCOS(=O)(=O)[O-].CC[N+]1(C)CCOCC1` + O: the viscosity is 690 mPa·s (298.15 K, x2 = 0.2761); 7.7 mPa·s (298.15 K, x2 = 0.8745); 94 mPa·s (303.15 K, x2 = 0.5594); 6.5 mPa·s (303.15 K, x2 = 0.8745); 72 mPa·s (308.15 K, x2 = 0.5594); 8.8 mPa·s (323.15 K, x2 = 0.7786). Moreover, the viscosity (328.15 K, x2 = 0) was determined as 780 mPa·s; the viscosity (328.15 K, x2 = 0.7786) was determined as 7.6 mPa·s; the viscosity (338.15 K, x2 = 0.2761) came out at 86 mPa·s; the viscosity (343.15 K, x2 = 0.2761) is given as 69 mPa·s.
